Patent publication US20060246115A1, “Nutritional products for ameliorating symptoms of rheumatoid arthritis” (priority 2005, published 2006)

Tests used:
IL-1β = assay: Experiment 1: IL-1β ELISA in joint homogenates; format: in vivo, mice
Method: (§1) The following parameters are measured in joint homogenates: antibodies against type II collagen (IgG2a); proinflammatory cytokines: IL-1β and IL-6; counter-regulatory cytokines: IL-10; and Matrix metalloproteinases: MMP-9. Antibodies against type II collagen (IgG2a) are also measured in serum.
Cytokines and MMP-9 in homogenized joints are measured by ELISA using commercial kits from BIOTRAK (Amersham Pharmacia Biotech) following the supplier instructions and using joint homogenates without any further dilution.

[1] = tested on: type II collagen-immunized mice (collagen-induced arthritis); assay: Experiment 3: CIA in mice, arthritis index, onset and incidence; format: in vivo; settings: prednisolone i.p. daily
IL-6 = assay: Experiment 1: IL-6 ELISA in joint homogenates; format: in vivo, mice
Method: (§2) The following parameters are measured in joint homogenates: antibodies against type II collagen (IgG2a); proinflammatory cytokines: IL-1β and IL-6; counter-regulatory cytokines: IL-10; and Matrix metalloproteinases: MMP-9. Antibodies against type II collagen (IgG2a) are also measured in serum. Cytokines and MMP-9 in homogenized joints are measured by ELISA using commercial kits from BIOTRAK (Amersham Pharmacia Biotech) following the supplier instructions and using joint homogenates without any further dilution.

[2] = tested on: antibodies against type II collagen (IgG2a); assay: Experiment 1: anti-CII IgG2a ELISA in serum and joint homogenates; format: in vivo, mice
Method: Blood samples are taken from the retroorbital sinus under light anesthesia and the animals are immediately sacrificed by cervical dislocation. Fore and hind limbs are dissected and frozen at −80° C. Blood samples are allowed to cloth for 1 hour at room temperature and the serum is separated from blood cells by centrifugation at 6,500 g for 10 min.
as §1
Specific anti-CII—IgG2a in joints and serum of mice is determined by ELISA. Briefly, 96-well microtiter plates are coated overnight with CII at 4° C., washed with 0.05% Tween-PBS, blocked with 1% bovine serum albumin-PBS for 2 h at room temperature and then washed again. Samples are diluted with PBS before assay: 1:16000 for serum and 1:50 for homogenized joints. Fifty (50) μL of standards (type II collagen Ab-2, clone 2B1.5, NeoMarkers) from 0 to 500 ng/ml and samples are added to each well in duplicate, and incubated 2 h at 37° C. […] Finally the absorbance is measured in a microplate reader at 405 nm.

[3] = tested on: histological structure of cartilage and bone of arthritic joints; assay: Experiment 3: histological scoring of joints of CIA mice (H&E); format: in vivo
Source text: Experiment 1 is repeated and the test animals evaluated for various histological changes associated with each control or treatment group. The purpose of this experiment is to show the effect of Boswellia serrata and Phlebodium decumanum extracts and Oxepa® on the histological structure of cartilage and bone in the same experimental model as described above. After again completing the above-described model, the mice are sacrificed 10 days after the arthritis onset by cervical dislocation under light anesthesia. Fore and hind limbs are dissected and the skin removed. Each is then immersed in 4% buffered formaldehyde for 2-3 days. Afterwards, each is treated with decalcificant solution for 2 hours and treated again for 60-90 minutes more. The samples are dehydrated with alcohol solutions of increasing concentrations, embedded in paraffin, cut into 4 μm slices and stain with hematoxilin and eosin (H&E). The following joints are thereafter studied: elbow, radio-cubito-carpo (wrist), carpo-metacarpo and metacarpo-phalange in fore limbs, and knee, tibio-tarso (ankle), tarso-metatarso, metatarso-phalange in hind limbs. Typical alterations of arthritic joints are considered, such as synovial inflammation, pannus formation, cartilage damage and bone destruction, and are scored on a nominal scale from 0 to 3. The scale is defined for each parameter as follows: Synovial inflammation: 0=Absence: normal synovial-periarticular tissue; 1=mild: infiltration of inflammatory cells in the periarticular tissue; 2=moderated: cell infiltration and moderated edema; 3=severe: marked cell infiltration and edema. Pannus formation: None (0), mild (1), moderate (2) or severe (3) proliferation of synovial tissue at the synovium-cartilage junction. Cartilage damage: 0=Absence: normal cartilage; 1=mild: damage of Zone I (external) with slight loss of chondrocytes and/or collagen disruption; 2=moderated: damage of Zone II (internal) with moderate loss of chondrocytes and/or collagen disruption: 3=severe: severe damage of all Zones with multifocal losses of chondrocytes and/or collagen disruption. Subchondral bone destruction: 0=Absence: normal bone; 1=mild: some areas of cortical degradation, few osteoclasts; 2=moderated: clear bone degradation with moderate medular damage, more osteoclasts; 3=severe: intense cortical and medular bone destruction, numerous osteoclasts. The scores of all joints are summed to obtain a general score for each histological parameter and animal. The histopathologist is not aware of the study groups during the evaluation of the samples. Homogeneity of variances are tested by the Bartelett's test. If homogeneity of variances is met, data are analysed by one-way ANOVA. If variances are not homogeneous, non-parametric procedures are used. The analysis is done by the Graph Pad Prism Software version 4.

MMP-9 = assay: Experiment 1: MMP-9 ELISA in joint homogenates; format: in vivo, mice
Method: as §2

[4] = tested on: type II collagen-immunized mice (collagen-induced arthritis); assay: Experiment 1: collagen-induced arthritis (CIA) in mice, clinical assessment; format: in vivo; settings: prednisolone 5 mg/kg i.p. daily
Method: Tests are conducted under a model of rheumatoid arthritis in mice (collagen-induced arthritis or CIA) that shares some similarities with the human disease. The tests evaluate the effect of plant extracts and Oxepa®, on the severity of CIA and concentration of inflammatory mediators.
Seven week-old DBA/1J (H-2^q) male mice (n=105) are purchased from Harlan (Barcelona, Spain) and housed in plastic cages (5 animals each) with free access to food and water.
The procedure followed for the animal immunization is carried out by injecting 100 μl of bovine collagen II emulsion (type II collagen in complete Freund's adjuvant) intradermically in the base of the tail. Collagen is supplied by Chondrex (MDbiosciences, Switzerland) and the emulsion is prepared as follows: collagen is dissolved in 0.05M acetic acid (2 mg/ml) overnight at 4° C. with constant, but gentle stirring and emulsified with Freund's adjuvant (1:1). The Freund's adjuvant is added drop by drop while mixing in a high-speed homogenisator (ultraturrax) at 27,000 rpm. […]
Mice are assessed daily for clinical symptoms of inflammation, and their weights are measured. […]
For the statistical analysis, outliers are removed if they differed from the mean more than three standard deviations. Homogeneity of variances is analysed by Levene's test. […] The classification of arthritic index into categories is analysed by Chi-squared.

[5] = individual mice, sum of scores (0-3) of all joints

**Q.** `C[C@]12C=CC(=O)C=C1CC[C@@H]1[C@@H]2[C@@H](O)C[C@@]2(C)[C@H]1CC[C@]2(O)C(=O)CO` [prednisolone] was tested. Which “content of IL-1β in joint homogenates versus control” value (IL-1β) did it give?
**A.** The value was “lower”.

**Q.** What about the development of arthritis [1] of the same molecule?
**A.** Its development of arthritis is “do not develop arthritis”.

**Q.** What about the “content of IL-6 in joint homogenates versus control” value (IL-6) of the same molecule?
**A.** Its value is “lower”.

**Q.** And the “IgG2a levels in joint homogenates versus control” value ([2]; joint homogenates)?
**A.** The value was “significantly lower”.

**Q.** And the “IgG2a levels in serum versus control” value ([2]; serum)?
**A.** Its value is “significantly lower”.

**Q.** What about the Bone score [3, 5] of the same molecule?
**A.** Its Bone score is 0.

**Q.** And the Cartilage score [3, 5]?
**A.** Its Cartilage score is 0.

**Q.** And the Inflammation score [3, 5]?
**A.** Its Inflammation score is 0.

**Q.** And the Pannus score [3, 5]?
**A.** Its Pannus score is 0.

**Q.** What about the “joint appearance, histological slide” value ([3]; knee, left hind limb, H&E, FIG. 9) of the same molecule?
**A.** Its value is “normal joint”.

**Q.** What about the “content of MMP-9 in joint homogenates versus control” value (MMP-9) of the same molecule?
**A.** Its value is “lower”.

**Q.** What about the development of arthritis [4] of the same molecule?
**A.** Its development of arthritis is “do not develop arthritis”.
